Holding throughout (format): cell-based
The subject of one assay is DU-145. Kind of assay: SRB anticancer activity screening, DU-145. Further details: Inhibition % for cancer cells DU-145: dose or concentration left out as unconfirmed. The following applies: DU-145 human prostate cancer, 48 hours. The method, then:
(§1) A-549 (human lung carcinoma), HT-29 (human colon adenocarcinoma), DU145 (human prostate cancer), SK-MEL-2 (human malignant melanoma) and SK-OV-3 (human ovary malignant ascites) cells were used to evaluate the anticancer activity of the test compounds. All the cancer cells are all tumors cells derived from human and were acquired from the Korean Cell Line Bank. RP MI 1640 medium containing 10% fetal bovine serum was used as a culture medium. Cell culturing was performed in a constant-temperature, constant-humidity incubator (37° C., 5% CO2). Subculturing was performed once in 3 days, using 0.25% trypsin-1 mM EDTA.
(§2) The sulforhodamine B ([…]) assay, which was developed in 1989 by the National Cancer Institute to measure in vitro anticancer activity of drugs, was employed.
(§3) The subcultured cells were transferred using trypsin-EDTA solution to a 96-well microplate, at 5×10^3 cells per well, and then cultured in a CO2 incubator for 24 hours. After removing the medium and adding a solution of the test compound (100 μL) diluted 4-fold, the cells were cultured for 48 hours. […] After completely lysing the cells by adding 10 mM Trizma base (pH 10.3, 200 μL) to each well, absorbance was measured at 520 nm.
(§4) In order to evaluate the activity of the test compound for the cancer cells, GI50 was calculated according to Equation 1 or 2. […]
(§5) Then, IC50 value was calculated from the inhibitory concentration.

The test system of a further assay is HT-29. Put plainly: SRB anticancer activity screening, HT-29. Set-up: Inhibition % for cancer cells HT-29: dose or concentration left out as unconfirmed. The following applies: HT-29 human colon adenocarcinoma, 48 hours. The method, then: as §1, §2, §3, §4, §5
In the next assay the test system is HCT-116. Put plainly: SRB anticancer activity screening, HCT-116. Set-up: Inhibition % for cancer cells HCT-116: dose or concentration left out as unconfirmed. As to conditions: HCT-116 human colon cancer, 48 hours.
The next assay concerns A375P. Kind of assay: SRB anticancer activity screening, A375P. Set-up: Inhibition % for cancer cells A375P: dose or concentration left out as unconfirmed. As to conditions: A375P human melanoma cancer, 48 hours.

The term IC50 denotes the concentration needed to halve the response being measured.

Regarding `Cc1ccc(N2CCN(CCC(=O)n3nc(N)c4c3C(=O)N(Cc3ccccc3)CC4)CC2)c(C)c1` [Compound 17, 3-amino-1-[{4-(2,4-dimethylphenyl)piperazin-1-yl}propanoyl]-6-N-benzyl-4,5,6,7-tetrahydro-1H-pyrazolo[3,4-c]pyridin-7-one], the IC50 was found to be 0.4 ± 0.02 µM in the assay on DU-145 (read-out: IC50 (μM) for cancer cells DU-145), 0.15 ± 0.01 µM in the assay with HT-29 (read-out: IC50 (μM) for cancer cells HT-29), 0.34 ± 0.01 µM in the assay with HCT-116 (read-out: IC50 (μM) for cancer cells HCT-116) and 0.34 ± 0.03 µM in the assay with A375P (read-out: IC50 (μM) for cancer cells A375P).

On to `Cc1ccc(N2CCc3c(N)nn(C(=O)CCN4CCN(c5ccc(Cl)cc5)CC4)c3C2=O)cc1` [Compound 9, 3-amino-1-[{4-(4-chlorophenyl)piperazin-1-yl}propanoyl]-6-N-(p-tolyl)-4,5,6,7-tetrahydro-1-H-pyrazolo[3,4-c]pyridin-7-one], for which the “Inhibition % for cancer cells DU-145” value with DU-145 is 80.02%. For the same compound, the “Inhibition % for cancer cells HT-29” value in the assay with HT-29 is listed as 90.54%. In addition, the “Inhibition % for cancer cells HCT-116” value in the assay with HCT-116 is listed as 92.19%. The “Inhibition % for cancer cells A375P” value with A375P is 95.03%.

For the origin of these results see patent US8383631B2, “1,6-disubstituted-3-amino-4,5,6,7-tetrahydro-1H-pyrazolo[3,4-C]pyridin-7-one compounds and preparation thereof” (Korea Institute of Science and Technology, priority 2010, dated 2013).
